Entries after “also recorded” stand apart in the source; their conditions may differ.
How the values were obtained:
C. elegans [1] = assay: Lifespan assay (Automated Lifespan Machine); assay type: in vivo
From the text: N2 (Bristol) wild type strain has been used in this application.
To prevent chemical modification or metabolism of the test article by the food bacteria, worms were fed on a lawn of UV-killed bacteria (UV-i bacteria). An overnight culture of E. coli strain WP-2 was pelleted, washed, filtered, and irradiated. A suspension of UV-i bacteria was spotted on NGM agar containing Streptomycin to inhibit the growth of contaminating bacteria. The quantity and distribution of food bacteria were calibrated to ensure adequate access to food for the duration of assay while maintaining visibility of the worms.
The ALM used herein is based on the Caenorhabditis elegans lifespan machine published by Stroustrup et. al (Stroustrup, N. et al. The Caenorhabditis elegans Lifespan Machine. Nat Methods 10, 665-670 (2013)), with proprietary modifications to improve temperature stability and image acquisition. The scanner unit consists of a modified EPSON V850 and images are processed and analyzed using the ALM software (see id.). The machine time-of-death calls are trained and validated using the “storyboarding” feature of the ALM software.
The lifespan assay was designed and performed according to published and validated methods (Amrit, F. R. G., Ratnappan, R., Keith, S. A. & Ghazi, A. The C. elegans lifespan assay toolkit. Methods 68, 465-475 (2014)), using a modified version of the Automated Lifespan Machine (Stroustrup, N. et al. The Caenorhabditis elegans Lifespan Machine. Nat Methods 10, 665-670 (2013)). Worms were age synchronized by bleaching and eggs were plated directly onto NGM agar seeded with UV-i bacteria (Day 1, hatch). On Day 3, when the worms had reached the late L4 stage, they were transferred to dishes containing 100 μM 5-Fluorodeoxyuridine (FUdR) to suppress progeny. On day 5, the worms were washed off the dishes, and 30-50 worms were plated on each scanner dish. Plates were immobilized inverted on the bed of an Automated Lifespan Machine which scanned two images per hour of the plates continuously for the next 40 days.
Time of death calls exported from the ALM software was analyzed and plotted using the Lifelines software package developed by Cam Davidson-Pilon et. al (Lifelines Version: v0.25.9). Additional analysis performed using the OASIS2 analysis software (Seong Kyu Han et. al. OASIS 2: online application for survival analysis 2 with features for the analysis of maximal lifespan and healthspan in aging research. Oncotarget. 7:56147-56152. (2016)).
The lifespan assay was initiated by expanding all replicate groups to more than 1000 worms, then synchronizing by bleaching and allowing larval worms to hatch and arrest. To eliminate the effect of bacterial metabolism and growth on lifespan of C. elegans (wild type, and not over express β-amyloid peptide) worms, synchronized worms were only exposed to dead food bacteria. To suppress progeny, worms were transferred to media containing 5-Fluorodeoxyuridine (FUdR) within 54-60 hours post-plating. Worms were inspected 24 and 48 hours after this transfer to confirm infertility. Finally, the worms were inspected for general health and morphology before transferring to scanner plates. The scanner plates were incubated for an additional 2 days and inspected again before loading onto scanners.
To obtain high-resolution lifespan data and eliminate confounding factors such as worm handling and operator bias, lifespan data was collected using an Automated Lifespan Machine (ALM) (Stroustrup, N. et al. The Caenorhabditis elegans Lifespan Machine. Nat Methods 10, 665-670 (2013)). Three biological replicates, derived from synchronizing three independently maintained lines of N2 worms, were distributed across instruments. Images of the worms were then collected for the next 35 days with no interruption or manipulations. Some plates were excluded after quality checks, but plate number and worm count for all replicates exceeded the threshold for statistical significance (Table 1, row 1).

C. elegans [2] = assay: Movement and healthspan analysis (worm activity, morphology, circularity); assay type: in vivo; settings: 0.1 mM
From the text: Worm movement was tracked from the images acquired by the ALM during the lifespan assay. Worm size and movement features were extracted and analyzed using custom software.
To measure healthspan, active worms were identified using the ALM scanner images from the lifespan assay (see Example 2). The worms' spatial location on the plate and their morphology were quantified throughout their lifespan to assess healthspan.
Worm Activity serves as a proxy for animal health. Changes in spatial distribution of the worms between time points is used to derive aggregate movement for the population over time. Worm Activity is described by two complementary measurements of aggregate movement, Centroid Distance and Spatial Distribution: • Centroid Distance calculates a geometric center for each individual worm, and then measures the minimum collective distance that a group of worms moved between time points. It achieves measurement of the changes in spatial distribution between time-points. • Spatial Distribution uses changes in worm contours between time points to measure the changes in the spatial distribution of the worms' bodies. The normalized distribution of these distances in the population provides a measure of how much the group of worms altered their positions and posture on the plate between two time-points.
For both of these Activity metrics, a plot with higher numbers indicates good health, and all measures are normalized to fall between 0 and 1.
Worm morphology is measured from the worm contours detected in the images. In the process of aging, worms become shorter and stouter over time and their shape is an indicator of their overall health and biological age. The Length is calculated from the central spline fitted to the worm contour and Width is measured from each worm's widest point. The worms' posture also changes with age as they lose the ability to maintain an elongated position. Average Circularity measures how close the shape and posture come to being enclosed by a circle.
Each of these measures are obtained by averaging data for all active worms detected on a plate, then averaging across different replicate plates of the same condition. All measurements are based on worms that are still alive and moving at the time of quantification. All measures start when worms are placed on the scanner at day 3 of adulthood.
Average Circularity. The Average Circularity Assay indicates worm heath by describing how closely the shape and posture of the worms is enclosed within a circle. Healthy, active worms maintain an elongated, albeit sinusoidal posture. As unhealthy and aged worms lose muscle function, they increasingly adopt a curled, bunched, or folded state in addition to a stout and wrinkled morphology.

## Oc1ccc(C=Cc2cc(O)cc(O)c2)cc1 [Resveratrol, reference compound]
C. elegans [1]; 0.1 mM
  Age in days at 25% mortality: 21.46 days
  Age in days at 50% mortality: 27.29 days
  Age in days at 75% mortality: 31.13 days
  Age in days at 90% mortality: 35.89 days
  Age in days at 100% mortality: 40.85 days
C. elegans [1]; 0.1 mM positive control
  Lifespan / survival relative to vehicle control (in words): significant positive increase in lifespan; also recorded: higher survival than the vehicle control at all timepoints
C. elegans [1]; 0.1 mM, 95th percentile of lifespans
  Maximum lifespan: 37.3 days
C. elegans [1]; 0.1 mM, N2 wild type, day 0 = day 1 of adulthood
  Median lifespan: 27.3 days
C. elegans [1]; 0.1 mM, area under survival curve
  Mean lifespan: 26.3 days
C. elegans [2]; late life
  Average circularity / posture (FIG. 7): maintained a more elongated posture well into late life
C. elegans [2]; over the duration of lifespan
  Aggregate movement (Centroid Distance and Spatial Distribution, FIGS. 5A-5B): more vigorous movement
C. elegans [2]; over the lifespan
  Worm morphology (size, FIGS. 6A-6C): slightly smaller earlier in the assay but remained larger in the late life stages

Reference: patent publication US12485110B2, “Use of ergothioneine for extending lifespan or improving healthspan” (NANJING NUTRABUILDING BIO-TECH CO., LTD., priority 2022, dated 2025)
